Assays:
hFXR = molecular target: T1, hFXR (Homo sapiens, UniProt Q96RI1); experiment: Luciferase reporter assay, FXR antagonism in transfected HEK293T cells; type: cell-based; settings: 100 µmol/L, in the presence of GW4064, HEK293T
T1 construct: expressed in transfected cells; host or cells: HEK293T
T1 sequence (Q96RI1 1-472 isoform Q96RI1-2): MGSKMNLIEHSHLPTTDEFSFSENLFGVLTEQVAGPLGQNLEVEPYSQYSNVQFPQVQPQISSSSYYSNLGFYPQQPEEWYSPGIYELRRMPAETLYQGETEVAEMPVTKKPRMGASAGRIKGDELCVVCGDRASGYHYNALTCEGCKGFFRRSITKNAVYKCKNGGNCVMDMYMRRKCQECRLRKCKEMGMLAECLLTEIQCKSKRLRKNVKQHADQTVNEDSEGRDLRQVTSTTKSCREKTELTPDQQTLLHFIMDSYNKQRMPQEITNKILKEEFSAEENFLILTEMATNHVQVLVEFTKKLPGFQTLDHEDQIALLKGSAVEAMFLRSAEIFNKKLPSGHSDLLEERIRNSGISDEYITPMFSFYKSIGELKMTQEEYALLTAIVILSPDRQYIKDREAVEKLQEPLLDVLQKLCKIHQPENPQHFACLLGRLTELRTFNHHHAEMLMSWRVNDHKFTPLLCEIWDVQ
Protocol: HEK293T cells were used for the luciferase report assays and were cultured in DMEM with 10% FBS. The cells were incubated in DMEM media with 1% FBS for 4–6 h and then exposed to the indicated concentrations of compounds for 24 h.
For the FXR antagonism experiment, HEK293T cells were seeded in 96-well plates and transfected with pCMV-Script-hFXR and pGL4.11-hSHP-luciferase at a density of 3 × 10^4 cells/well, before culturing overnight. The compounds at indicated concentrations were added to the cells and incubated at 37°C for 1 h, before stimulating with 1% DMSO (negative control) and 5 μmol/L GW4064 (positive control) for 24 h. For the FXR agonism experiment, HEK293T cells were seeded in 96-well plates and transfected with pCMV-Script-hFXR and pGL4.11-hSHP-luciferase at a density of 3 × 10^4 cells/well, before culturing overnight. Then compounds at indicated concentrations were added to the cells and incubated at 37°C for 24 h. […]
The luciferase activities and cell viabilities were detected by the FIREFLYGLO Luciferase Assay System and Cell Titer-Blue® Cell Viability Assay according to the manufacturer’s instructions. Firefly luciferase activities and cell viabilities were measured using Spectra Max M5e (Molecular Devices).

FXR-LBD = molecular target: T2, FXR-LBD (Homo sapiens, UniProt Q96RI1); experiment: Co-immunoprecipitation of BIOTIN-DC646 and purified FXR-LBD; type: binding; settings: BIOTIN-DC646 50 μmol/L with purified FXR-LBD
T2 construct: 50 μmol/L Biotin-DC646 were incubated with 50 μmol/L purified FXR-LBD
T2 sequence (Q96RI1 262-486 limits assumed): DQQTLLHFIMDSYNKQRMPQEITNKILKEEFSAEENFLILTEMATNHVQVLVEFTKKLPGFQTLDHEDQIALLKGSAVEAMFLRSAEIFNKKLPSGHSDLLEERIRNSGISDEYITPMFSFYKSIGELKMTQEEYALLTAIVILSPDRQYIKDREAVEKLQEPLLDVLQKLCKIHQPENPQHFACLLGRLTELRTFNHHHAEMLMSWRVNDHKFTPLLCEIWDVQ
Protocol: For the co-immunoprecipitation of Biotin-DC646 and FXR-LBD, 50 μmol/L Biotin-DC646 were incubated with 50 μmol/L purified FXR-LBD at room temperature for 2 h at indicated conditions. These mixtures were then immunoprecipitated with beads which had been incubated with anti-His antibody (12698S, Cell Signaling Technology) at room temperature for 1 h. Immunoblotting was performed using the anti-BIOTIN antibody (sc-101339, Santa Cruz Biotechnology).

[1] = system: GAN diet-induced MASH in Fxr^△IE mice; experiment: GAN diet-fed Fxr^△IE mice; type: in vivo, mouse; settings: GAN diet 20 weeks, oral 10 mg/kg daily for 8 weeks
Protocol: For the long-term MASH model, 8- to 10-week-old male C57BL/6 J mice were fed with an MCS diet or MCD diet for 2 weeks, before the MCD models were administered with vehicle or GUDCA (50 mg/kg), OCA (30 mg/kg), and DC646 (10 mg/kg) for 4 weeks. The serum, liver, and intestine were collected 2 h after the final dosing. Male Fxr^△IE mice (8–10 weeks old) were fed with a GAN diet for 20 weeks and administered with vehicle or DC646 (10 mg/kg) from the 12th week for 8 weeks. The serum, liver, and intestine were collected 2 h after the final dosing.
Hepatic TG and TC, and plasma ALT and AST levels were measured using commercial kits from Nanjing Jiancheng Bioengineering Institute according to the manufacturer’s instructions. To measure hepatic TG contents, liver tissues (~10 mg) were homogenized in 100 μL 1% TritonX-100 and centrifuged at 3000 rpm for 10 min. […] Hepatic TG or TC levels were read at 510 or 500 nm using a microplate reader (Versamax, Molecular Devices) and normalized using the protein concentration. […] The data were acquired using the kinetic mode with an interval of 30 s and 31 total reads at 340 nm using a microplate reader (Versamax, Molecular Devices).
Tissue specimens were fixed in 10% formalin for 12–24 h before being dehydrated and paraffin-embedded. […] At least three discontinuous liver sections were evaluated for each mouse.

`CC(C)C[C@@H]1NC(=O)[C@@H]2CN(CCO2)c2cccc3c2c(cn3[Si](C(C)C)(C(C)C)C(C)C)C[C@H](NS(=O)(=O)C(F)(F)F)C(=O)OCCCCNC(=O)[C@H](CC(C)C)NC(=O)[C@@H]2CN(CCO2)c2cccc3c2c(cn3[Si](C(C)C)(C(C)C)C(C)C)C[C@H](NS(=O)(=O)C(F)(F)F)C(=O)OCCCCNC1=O` [DC646, N,N'-((1^2R,1^4S,16^2R,16^4S,4R,13R,19R,28R)-13,28-diisobutyl-5,12,15,20,27,30-hexaoxo-2^1,17^1-bis(triisopropylsilyl)-2^1H,17^1H-6,21-dioxa-11,14,26,29-tetraaza-1(4,2),16(2,4)-dimorpholina-2,17(4,3)-diindolacyclotriacontaphane-4,19-diyl)bis(1,1,1-trifluoromethanesulfonamide)] was tested, and the “Suppression of FXR activation (relative luciferase activity)” value (hFXR) was “more than 70%”, the “Binding with FXR-LBD (co-immunoprecipitation)” value (FXR-LBD) was “directly bind” and the “Liver/body weight ratio, serum ALT, serum AST, liver TG, liver TC and NAS score” value [1] was “did not reduce”. The “mRNA levels of genes in the intestinal FXR signaling” value [1] was “no difference”.

From paper PMC11992618, “Development of cyclopeptide inhibitors specifically disrupting FXR–coactivator interaction in the intestine as a novel therapeutic strategy for MASH” (Life Metabolism, 2025)
